Calls of active or inactive are those of the source. No cut-off for these calls is given here.
What was measured:
[1] = target: Cyclin-dependent kinase 2/cyclin E1 (Homo sapiens, UniProt P24941); experiment: Inhibition of human CDK2/cyclin E expressed in Sf9 insect cells using histone H1 as substrate in presence of [gamma-33P]ATP; type: cell-based
[2] = target: Tyrosine-protein kinase ABL1 (Mus musculus, UniProt P00520); experiment: biochemical; type: cell-based, Sf9
K562 = experiment: Cytotoxicity against human K562 cells assessed as decrease in cell proliferation after 72 hrs by calcein AM staining-based assay; type: functional; conditions: K562, 72 h
MCF7 = experiment: Cytotoxicity against human MCF7 cells assessed as decrease in cell proliferation after 72 hrs by calcein AM staining-based assay; type: functional; conditions: MCF7, 72 h
[3] = target: T1, TGF-beta receptor type-1 (Homo sapiens) (UniProt P36897); conditions: HeLa, at 1 µM
T1 sequence (whole entry): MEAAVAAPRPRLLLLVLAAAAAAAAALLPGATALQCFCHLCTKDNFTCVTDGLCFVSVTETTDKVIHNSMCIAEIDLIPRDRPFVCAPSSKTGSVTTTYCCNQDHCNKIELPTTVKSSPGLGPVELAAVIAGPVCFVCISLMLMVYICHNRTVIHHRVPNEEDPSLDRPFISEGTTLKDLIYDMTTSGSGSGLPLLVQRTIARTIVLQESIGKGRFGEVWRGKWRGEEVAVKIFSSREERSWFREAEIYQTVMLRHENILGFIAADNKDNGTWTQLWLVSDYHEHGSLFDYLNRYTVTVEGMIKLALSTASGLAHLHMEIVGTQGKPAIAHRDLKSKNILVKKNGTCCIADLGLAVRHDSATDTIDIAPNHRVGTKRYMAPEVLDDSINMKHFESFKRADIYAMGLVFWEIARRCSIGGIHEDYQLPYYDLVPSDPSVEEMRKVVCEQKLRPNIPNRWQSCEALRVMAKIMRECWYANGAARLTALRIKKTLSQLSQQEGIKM
Description: Inhibition of ALK5 in serum starved human HeLa cells assessed as reduction in TGF-beta-induced SMAD2/3 nuclear transaction at 1 uM pre-incubated for 30 mins before TGF-beta stimulation for 30 mins by immunofluorescence analysis

TGF-beta receptor type-1 = target: T2, TGF-beta receptor type-1 (Homo sapiens, UniProt P36897); experiment: Inhibition of human ALK5 expressed in Sf9 insect cells using casein as substrate in presence of [gamma-33P]ATP; type: cell-based
T2 sequence (P36897 whole entry): T1 sequence (whole entry)

Sequence of Tyrosine-protein kinase ABL1 (P00520 whole entry): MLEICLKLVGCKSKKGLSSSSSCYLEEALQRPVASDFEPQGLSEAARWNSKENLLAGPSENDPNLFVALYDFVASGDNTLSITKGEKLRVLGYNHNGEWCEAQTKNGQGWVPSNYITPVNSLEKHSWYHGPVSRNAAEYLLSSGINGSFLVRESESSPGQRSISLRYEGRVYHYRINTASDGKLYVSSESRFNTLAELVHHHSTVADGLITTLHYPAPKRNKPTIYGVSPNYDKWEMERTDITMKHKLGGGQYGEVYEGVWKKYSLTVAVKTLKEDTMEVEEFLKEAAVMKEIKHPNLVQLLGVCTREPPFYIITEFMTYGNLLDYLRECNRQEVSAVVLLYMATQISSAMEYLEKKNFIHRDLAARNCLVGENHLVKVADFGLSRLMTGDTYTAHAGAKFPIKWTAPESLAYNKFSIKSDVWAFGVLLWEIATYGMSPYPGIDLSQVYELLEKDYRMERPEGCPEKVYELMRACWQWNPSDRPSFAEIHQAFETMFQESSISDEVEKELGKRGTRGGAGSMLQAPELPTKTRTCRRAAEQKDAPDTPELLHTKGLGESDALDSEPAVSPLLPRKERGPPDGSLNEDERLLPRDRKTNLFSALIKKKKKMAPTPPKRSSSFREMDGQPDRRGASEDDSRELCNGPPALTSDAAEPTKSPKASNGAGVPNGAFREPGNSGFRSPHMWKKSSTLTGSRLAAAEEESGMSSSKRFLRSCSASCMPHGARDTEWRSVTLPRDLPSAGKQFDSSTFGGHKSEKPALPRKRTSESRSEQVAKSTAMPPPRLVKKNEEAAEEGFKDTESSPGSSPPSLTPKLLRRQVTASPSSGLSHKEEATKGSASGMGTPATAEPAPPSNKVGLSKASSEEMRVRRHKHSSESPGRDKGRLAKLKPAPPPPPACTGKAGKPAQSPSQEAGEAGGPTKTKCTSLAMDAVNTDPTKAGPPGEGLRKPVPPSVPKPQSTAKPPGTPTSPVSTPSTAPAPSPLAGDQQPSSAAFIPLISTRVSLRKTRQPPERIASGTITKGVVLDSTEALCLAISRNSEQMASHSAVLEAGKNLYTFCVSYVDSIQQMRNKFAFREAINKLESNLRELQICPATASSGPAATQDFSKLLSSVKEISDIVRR

| Structure (SMILES) | IC50 [1] [µM] | IC50 [2] [µM] | IC50 (K562) [µM] | IC50 (MCF7) [µM] | inhibition [3] | IC50 (TGF-beta receptor type-1) [µM] |
| --- | --- | --- | --- | --- | --- | --- |
| Cc1cccc(-c2n[nH]cc2-c2ccc3ncccc3n2)n1 [GW786460X] | > 100 | 21 | > 100 | > 100 | Active | – |
| Cc1cccc(-c2nn3c(c2-c2ccc(O)cc2)[C@@H](C)C(C)(C)C3)n1 | > 25 | > 100 | > 50 | > 50 | – | 0.197 |
| Cc1cccc(-c2nn3c(c2-c2ccnc(Cl)c2)CC(C)(C)C3)n1 | > 100 | > 100 | > 100 | > 100 | – | 1.23 |
| CCc1cccc(-c2nn3c(c2-c2ccncc2)C(C)C(C)(C)C3)n1 (stereo not given) | > 100 | 43 | > 100 | > 100 | – | 0.183 |
| Cc1cccc(-c2nn3c(c2-c2ccc(O)cc2)CC(C)(C)C3)n1 | > 100 | 20 | > 25 | > 25 | – | 0.229 |
| CCc1cccc(-c2nn3c(c2-c2ccc(O)cc2)[C@H](C)C(C)(C)C3)n1 | > 100 | > 100 | > 100 | > 100 | – | 0.137 |
| CC1(C)Cc2c(-c3ccncc3)c(-c3ccccc3C#N)nn2C1 | > 100 | 20 | > 100 | > 100 | – | 2.52 |
| Cc1cccc(-c2nn3c(c2-c2ccnc(Cl)c2)C(C)C(C)(C)C3)n1 (stereo not given) | > 100 | > 100 | > 100 | > 100 | – | 0.517 |
| Cc1cc(-c2c(-c3cccc(C)n3)nn3c2C(C)C(C)(C)C3)ccn1 (stereo not given) | > 100 | 25 | > 100 | > 100 | – | 0.548 |
| CCc1cccc(-c2nn3c(c2-c2ccc(O)cc2)[C@@H](C)C(C)(C)C3)n1 | 53 | > 100 | 77 | 58 | – | 0.261 |
| CC1(C)Cc2c(-c3ccc(O)cc3)c(-c3ccccn3)nn2C1 | > 100 | > 100 | 74 | > 100 | – | 1.99 |
| Cc1cccc(-c2nn3c(c2-c2ccncc2)C(CO)C(C)(C)C3)n1 (stereo not given) | > 100 | 93 | > 100 | > 100 | – | 1.41 |
| Cc1cccc(-c2nn3c(c2-c2ccc(O)cc2)C(C)C(C)(C)C3)c1C#N (stereo not given) | > 12 | > 12 | > 12 | > 12 | – | 0.341 |
| CCc1cccc(-c2nn3c(c2-c2ccnc(Nc4ccc(S(N)(=O)=O)cc4)c2)C(C)C(C)(C)C3)n1 (stereo not given) | 37 | 6.8 | 24 | 28 | – | 0.229 |
| COc1ccc(-c2c(-c3cccc(C)n3)nn3c2C(C)C(C)(C)C3)cc1 (stereo not given) | > 100 | > 100 | 88 | 66 | – | 0.612 |
| Cc1cccc(-c2nn3c(c2-c2ccnc(Nc4ccc(S(N)(=O)=O)cc4)c2)C(C)C(C)(C)C3)n1 (stereo not given) | 11 | 0.55 | 31 | 22 | – | 0.154 |
| Cc1cccc(-c2nn3c(c2-c2ccncc2)C(C)C(C)(C)C3)n1 (stereo not given) | > 100 | 21 | > 100 | > 100 | – | 0.181 |
| CC1c2c(-c3ccncc3)c(-c3ccccc3C#N)nn2CC1(C)C (stereo not given) | > 100 | 11 | 77 | > 100 | – | 1.29 |
| Cc1cccc(-c2nn3c(c2-c2ccncc2)CC(C)(C)C3)n1 | > 100 | 26 | > 100 | > 100 | – | 0.406 |
| CC1(C)Cc2c(-c3ccncc3)c(-c3ccccn3)nn2C1 | > 50 | > 50 | > 100 | > 100 | – | 1.94 |
| COCC1c2c(-c3ccncc3)c(-c3cccc(C)n3)nn2CC1(C)C (stereo not given) | > 100 | 25 | > 100 | > 100 | – | 0.743 |
| CCOC(=O)c1ccc(-c2c(-c3cccc(C)n3)nn3c2C(C)C(C)(C)C3)cc1 (stereo not given) | > 100 | > 100 | 45 | 29 | – | 2.01 |
| CCc1cccc(-c2nn3c(c2-c2ccnc(Cl)c2)C(C)C(C)(C)C3)n1 (stereo not given) | > 100 | > 100 | 82 | > 100 | – | 2.74 |
| Cc1cccc(-c2nn3c(c2-c2ccnc(Nc4ccc(S(N)(=O)=O)cc4)c2)CC(C)(C)C3)n1 | > 100 | 2.5 | 52 | 92 | – | 0.147 |
| Cc1cccc(-c2nn3c(c2-c2ccc(O)cc2)[C@H](C)C(C)(C)C3)n1 | > 100 | > 100 | > 100 | > 100 | – | 0.097 |
| CCc1cccc(-c2nn3c(c2-c2ccc(OC)cc2)C(C)C(C)(C)C3)n1 (stereo not given) | > 100 | > 100 | 64 | 45 | – | 0.805 |
| CC1c2c(-c3ccc(O)cc3)c(-c3ccccc3C#N)nn2CC1(C)C (stereo not given) | > 12 | > 12 | > 12 | > 12 | – | 5.19 |
| CCc1cccc(-c2nn3c(c2-c2ccc(O)cc2)C(C)C(C)(C)C3)n1 (stereo not given) | > 100 | > 100 | > 100 | 46 | – | 0.098 |
| Cc1cccc(-c2nn3c(c2-c2ccncc2)C(C)C(C)(C)C3)c1C#N (stereo not given) | > 100 | 6.4 | 92 | 97 | – | 0.162 |

From ChEMBL document CHEMBL4270481, “ALK5 kinase inhibitory activity and synthesis of 2,3,4-substituted 5,5-dimethyl-5,6-dihydro-4H-pyrrolo[1,2-b]pyrazoles” (Eur J Med Chem, 2017)
